These results are taken from PubChem BioAssay (NCI).

Each structure is given as a SMILES string.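 Exposure lasted 48 hours, with cells grown in 96-well plates and compounds tested at five concentrations. GI50 = concentration required for 50% inhibition of growth. TGI: total growth inhibition.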 Where only a bound is given, the exact number is not on record here.

Some test systems named below: PC-3 prostate; MCF7 breast; SF-268 CNS; BT-549 breast; SN12C renal; SF-539 CNS; HOP-62 NSCLC; KM12 colon; DU-145 prostate; OVCAR-3 ovarian.
Common to all, as to assay: NCI anticancer screen, dose series, 48 h

Take `CCN(CC)CCCNc1cc(OC)c(OC)c2cccnc12`: the GI50 with PC-3 prostate was 16.1 µM; in the experiment with MCF7 breast, 1.71 µM; in the experiment with SF-268 CNS, 14.4 µM; with BT-549 breast it was 18.6 µM; in the experiment on SN12C renal, 2.47 µM; in the experiment on SF-539 CNS, 8.01 µM. Moreover, the GI50 in the experiment on HOP-62 NSCLC is 2.04 µM; in the experiment on KM12 colon it was 13 µM; in the experiment with DU-145 prostate it was 15.9 µM; with OVCAR-3 ovarian, 2.19 µM. Besides, the TGI in the experiment with PC-3 prostate is 47.2 µM; in the experiment on MCF7 breast it was 5.47 µM; in the experiment on SF-268 CNS it was 46.3 µM; with BT-549 breast it was 36.5 µM; in the experiment with SN12C renal, 7.7 µM; in the experiment on SF-539 CNS, 23 µM. Also, the TGI in the experiment on HOP-62 NSCLC worked out at 21.4 µM; with KM12 colon it was 31 µM; with DU-145 prostate it was 33.4 µM; in the experiment on OVCAR-3 ovarian it was 5.13 µM.

Regarding `CC(=N\O)/C(C)=N/O.CC(=N\O)/C(C)=N/O.[Fe].[NH2-].c1c[nH]cn1`, the GI50 with PC-3 prostate, in the experiment on MCF7 breast, with SF-268 CNS, with BT-549 breast, with SN12C renal and with SF-539 CNS was more than 100 µM in each case. Also, the GI50 in the experiment on HOP-62 NSCLC, in the experiment on KM12 colon, in the experiment on DU-145 prostate and with OVCAR-3 ovarian was more than 100 µM each time. For the same compound, the TGI in the experiment on PC-3 prostate, in the experiment on MCF7 breast, with SF-268 CNS, in the experiment on BT-549 breast, in the experiment on SN12C renal and with SF-539 CNS was more than 100 µM throughout. The TGI with HOP-62 NSCLC, with KM12 colon, with DU-145 prostate and in the experiment on OVCAR-3 ovarian was more than 100 µM throughout.

As to `C(=C\c1ccc(OCC2CO2)cc1)/C1=NCOC1` (stereo not given), the GI50 with PC-3 prostate was 13.2 µM; in the experiment on MCF7 breast, 4.65 µM; in the experiment on SF-268 CNS, 7.3 µM; in the experiment on BT-549 breast it was 12.4 µM; with SN12C renal it was 10.6 µM; in the experiment with SF-539 CNS, 9.48 µM. The GI50 was 26 µM in the experiment with HOP-62 NSCLC, 16.5 µM with KM12 colon, 9.82 µM in the experiment with DU-145 prostate and 7.87 µM with OVCAR-3 ovarian. Also, the TGI came to 28 µM with PC-3 prostate; 46 µM with MCF7 breast; 33.8 µM with SF-268 CNS; 27.2 µM in the experiment with BT-549 breast; 25.9 µM in the experiment on SN12C renal; 25.8 µM with SF-539 CNS. Moreover, the TGI in the experiment on HOP-62 NSCLC came to 65.3 µM; in the experiment on KM12 colon, 40.8 µM; with DU-145 prostate it was 29.2 µM; with OVCAR-3 ovarian it was 29.1 µM.

For `Cn1cc(-c2nc(-c3cn(C)c4ncccc34)cs2)c2ccccc21`, the GI50 in the experiment with PC-3 prostate was 1.92 µM; with MCF7 breast, 0.372 µM; in the experiment on SF-268 CNS, 4.83 µM; with BT-549 breast, 2.32 µM; in the experiment on SN12C renal, 4.76 µM; in the experiment with SF-539 CNS, 1.76 µM. Also, the GI50 was 2.01 µM in the experiment with HOP-62 NSCLC, 0.61 µM in the experiment on KM12 colon, 2.25 µM with DU-145 prostate and 0.414 µM in the experiment with OVCAR-3 ovarian. Moreover, the TGI in the experiment on PC-3 prostate was 9.3 µM; in the experiment with MCF7 breast it was 17.5 µM; with SF-268 CNS it was 37.3 µM; in the experiment on BT-549 breast it was 31 µM; in the experiment with SN12C renal it was more than 100 µM; in the experiment with SF-539 CNS, 4.99 µM. The TGI was 11.5 µM with HOP-62 NSCLC, more than 100 µM with KM12 colon, 10.7 µM in the experiment on DU-145 prostate and 1.71 µM in the experiment with OVCAR-3 ovarian.

For the compound `CCOC(=O)c1ccc(NC(=O)c2cccc(NC3=C(Cl)C(=O)N(Cc4ccccc4)C3=O)c2)cc1`, the GI50 in the experiment with PC-3 prostate was more than 100 µM; with MCF7 breast, 51.3 µM; in the experiment with SF-268 CNS, 42.3 µM; with BT-549 breast, more than 100 µM; with SN12C renal it was more than 100 µM; with SF-539 CNS it was more than 100 µM. Also, the GI50 in the experiment on HOP-62 NSCLC, with KM12 colon, with DU-145 prostate and with OVCAR-3 ovarian was more than 100 µM throughout. The TGI in the experiment with PC-3 prostate, with MCF7 breast, with SF-268 CNS, in the experiment on BT-549 breast, with SN12C renal and in the experiment on SF-539 CNS was more than 100 µM throughout. The TGI in the experiment on HOP-62 NSCLC, in the experiment on KM12 colon, in the experiment on DU-145 prostate and in the experiment with OVCAR-3 ovarian was more than 100 µM each time.

As to `OCC1OC(n2cnc3c(NCc4ccco4)ncnc32)C(O)C1O` (stereo not given), the GI50 in the experiment with PC-3 prostate is 1.33 µM; in the experiment on MCF7 breast, 0.72 µM; in the experiment with SF-268 CNS, 4.28 µM; with BT-549 breast, 0.421 µM; with SN12C renal it was 0.386 µM; in the experiment on SF-539 CNS it was 3.07 µM. The GI50 was 3.79 µM with HOP-62 NSCLC, 8.51 µM in the experiment on KM12 colon, 1.27 µM in the experiment with DU-145 prostate and 1.34 µM with OVCAR-3 ovarian. The TGI with PC-3 prostate is 19.1 µM; in the experiment with MCF7 breast it was more than 25.5 µM; in the experiment with SF-268 CNS, more than 100 µM; with BT-549 breast, 2.64 µM; in the experiment on SN12C renal, more than 100 µM; in the experiment with SF-539 CNS it was 13.6 µM. Also, the TGI in the experiment with HOP-62 NSCLC was more than 48.9 µM; in the experiment on KM12 colon it was more than 100 µM; with DU-145 prostate it was 4.14 µM; in the experiment on OVCAR-3 ovarian it was 3.12 µM.

`O=c1[nH]c2ccccc2n1C1CCN(CCOc2ccccc2)CC1`: the GI50 is 10.7 µM in the experiment on PC-3 prostate; 26.3 µM with MCF7 breast; 39.1 µM in the experiment on SF-268 CNS; 34.2 µM with BT-549 breast; 34.3 µM in the experiment with SN12C renal; 44.9 µM in the experiment with SF-539 CNS. In addition, the GI50 in the experiment on HOP-62 NSCLC is 50.3 µM; with KM12 colon, 40.4 µM; with DU-145 prostate, 15.8 µM; in the experiment with OVCAR-3 ovarian, 14 µM. For the same compound, the TGI in the experiment with PC-3 prostate, with MCF7 breast, with SF-268 CNS, in the experiment with BT-549 breast, with SN12C renal and in the experiment with SF-539 CNS was more than 100 µM each time. Further, the TGI with HOP-62 NSCLC, in the experiment on KM12 colon, with DU-145 prostate and in the experiment with OVCAR-3 ovarian was more than 100 µM in each case.

Take `CCOC(=O)c1cc2c(n1Cc1ccccc1OC)-c1oncc1CCC2`: the GI50 with PC-3 prostate is 2.48 µM; in the experiment with MCF7 breast, 0.716 µM; with SF-268 CNS, 46.2 µM; in the experiment with BT-549 breast it was 7.73 µM; with SN12C renal, more than 100 µM; with SF-539 CNS, 2.48 µM. The GI50 in the experiment with HOP-62 NSCLC was 1.89 µM; with KM12 colon it was 2.1 µM; in the experiment with DU-145 prostate, 5.27 µM; in the experiment with OVCAR-3 ovarian, 0.874 µM. The TGI with PC-3 prostate is more than 100 µM; with MCF7 breast, more than 100 µM; in the experiment with SF-268 CNS it was more than 100 µM; in the experiment with BT-549 breast it was more than 100 µM; with SN12C renal, more than 100 µM; with SF-539 CNS, 8.57 µM. Also, the TGI is 9.9 µM in the experiment with HOP-62 NSCLC, more than 100 µM in the experiment on KM12 colon, more than 100 µM in the experiment with DU-145 prostate and 6.49 µM with OVCAR-3 ovarian.

Consider `Nc1ncnc2c1ncn2CCCCC(=O)O`, for which the TGI in the experiment on PC-3 prostate, with MCF7 breast, in the experiment on SF-268 CNS, in the experiment on BT-549 breast, with SN12C renal and in the experiment with SF-539 CNS was more than 100 µM each time. The TGI with HOP-62 NSCLC, in the experiment with KM12 colon, with DU-145 prostate and in the experiment on OVCAR-3 ovarian was more than 100 µM each time.
